Tests used:
HepG2 [1] = test: Induction of NO generation in human HepG2 cells assessed as nitrite levels at 0.66 uM after 12 hrs by Griess assay (reference value: 12.7 +/- 1.8 uM); type: functional
HepG2 [2] = test: Induction of NO generation in human HepG2 cells assessed as nitrite levels at 0.66 uM after 60 hrs by Griess assay (reference value: 12.8 +/- 1.5 uM); type: functional
MDA-MB-231 = test: Growth inhibition of human MDA-MB-231 cells after 24 hrs by MTT assay; type: functional, cell-based; details: MDA-MB-231, 24 h
L02 [3] = test: Induction of NO generation in human HL-7702 cells assessed as nitrite levels at 0.66 uM after 6 hrs by Griess assay (reference value: 11.8 +/- 1.1 uM); type: functional
HepG2 [4] = test: Induction of NO generation in human HepG2 cells assessed as nitrite levels at 0.66 uM after 6 hrs by Griess assay (reference value: 12.6 +/- 1.1 uM); type: functional
HepG2 [5] = test: Induction of NO generation in human HepG2 cells assessed as nitrite levels at 0.66 uM after 3 hrs by Griess assay (reference value: 12.8 +/- 1.5 uM); type: functional
L02 [6] = test: Induction of NO generation in human HL-7702 cells assessed as nitrite levels at 0.66 uM after 12 hrs by Griess assay (reference value: 11.8 +/- 1.2 uM); type: functional
L02 [7] = test: Induction of NO generation in human HL-7702 cells assessed as nitrite levels at 0.66 uM after 48 hrs by Griess assay (reference value: 11.6 +/- 1.1 uM); type: functional
HepG2 [8] = test: Induction of NO generation in human HepG2 cells assessed as nitrite levels at 0.66 uM after 1 hr by Griess assay (reference value: 12.9 +/- 1.5 uM); type: functional
L02 [9] = test: Induction of NO generation in human HL-7702 cells assessed as nitrite levels at 0.66 uM after 1 hr by Griess assay (reference value: 11.6 +/- 1.1 uM); type: functional
L02 [10] = test: Induction of NO generation in human HL-7702 cells assessed as nitrite levels at 0.66 uM after 60 hrs by Griess assay (reference value: 11.8 +/- 1.3 uM); type: functional
HepG2 [11] = test: Growth inhibition of human HepG2 cells after 24 hrs by MTT assay; type: functional, cell-based; details: HepG2, 24 h
HepG2 [12] = test: Induction of NO generation in human HepG2 cells assessed as nitrite levels at 0.66 uM after 48 hrs by Griess assay (reference value: 12.8 +/- 1.7 uM); type: functional
MCF7 = test: Growth inhibition of human MCF7 cells after 24 hrs by MTT assay; type: functional, cell-based; details: MCF7, 24 h
L02 [13] = test: Induction of NO generation in human HL-7702 cells assessed as nitrite levels at 0.66 uM after 24 hrs by Griess assay (reference value: 11.6 +/- 1.1 uM); type: functional
HepG2 [14] = test: Induction of NO generation in human HepG2 cells assessed as nitrite levels at 0.66 uM after 24 hrs by Griess assay (reference value: 12.8 +/- 1.7 uM); type: functional
L02 [15] = test: Induction of NO generation in human HL-7702 cells assessed as nitrite levels at 0.66 uM after 3 hrs by Griess assay (reference value: 11.6 +/- 1.2 uM); type: functional

Row | SMILES | IC50 (MDA-MB-231) [µM] | IC50 (HepG2 [11]) [µM] | IC50 (MCF7) [µM] | also measured
1 | O=[N+]([O-])OCCCCCO | 140 | 72.8 | 102 | Activity (HepG2 [1]): 26 µM; Activity (HepG2 [2]): 17.1 µM; Activity (L02 [3]): 16 µM; Activity (HepG2 [4]): 23.3 µM; Activity (HepG2 [5]): 18.4 µM; Activity (L02 [6]): 17.5 µM; Activity (L02 [7]): 13.4 µM; Activity (HepG2 [8]): 16.2 µM; Activity (L02 [9]): 13.5 µM; Activity (L02 [10]): 13.3 µM; Activity (HepG2 [12]): 24.6 µM; Activity (L02 [13]): 14.1 µM; Activity (HepG2 [14]): 29.2 µM; Activity (L02 [15]): 13.8 µM
2 | O=[N+]([O-])OCCCCO | 157 | 90.8 | > 200 | 
3 | COc1ccc2oc3cc(OCCCCCCO[N+](=O)[O-])cc(O)c3c(=O)c2c1 | 3.05 | 13.6 | 41.1 | 
4 | O=c1c2ccc(O)cc2oc2cc(OCCCCCCO[N+](=O)[O-])cc(O)c12 | 10.6 | 26.4 | > 200 | 
5 | O=c1c2cc(Cl)ccc2oc2cc(OCCCCO[N+](=O)[O-])cc(O)c12 | 11.2 | 10.1 | 42.9 | 
6 | COc1ccc2oc3cc(O)cc(O)c3c(=O)c2c1 | > 200 | 93.2 | > 200 | 
7 | O=[N+]([O-])OCCCCCCO | 90.4 | 52.6 | 89.7 | 
8 | COc1cccc2oc3cc(OCCCCCCCO[N+](=O)[O-])cc(O)c3c(=O)c12 | 4.29 | 5.26 | 53.5 | 

Source: ChEMBL document CHEMBL4152189, “Incorporation of nitric oxide donor into 1,3-dioxyxanthones leads to synergistic anticancer activity” (Eur J Med Chem, 2018)
